For assay [1], the system named is supercoiled circular φX174 RFI DNA. Kind of assay: Single-strand DNA cleavage at various complex concentrations, 350 nm UV, agarose gel. In kind it is biochemical. The settings on record: for % form I (supercoiled circular DNA) / % form II (cleaved DNA) / (% form II)/(% form I): pH 6.0. How it is done:
The mixture was irradiated with 350 nm UV light (32-W) for 2.0 h at room temperature. After adding a gel-loading buffer (0.25% bromophenol blue, 0.25% xylene cyanol, and 30% glycerol), the reaction mixture was loaded on a 1% agarose gel, followed by ethidium bromide staining. The gel was visualized by a 312-nm UV transilluminator and photographed by a FB-PDC-34 camera. Supercoiled circular DNA (form I) and cleaved DNA (form II) were clearly seen from the gel.

The test system is the same in assay [2]. Kind of assay: Single-strand DNA cleavage at various pH's, 350 nm UV, agarose gel. In kind it is biochemical. The note with it: complex 5.0 μM. The procedure:
Cleavage at Various pH's: A reaction mixture (10 μL) containing supercoiled circular φX174 RFI DNA stock solution (50 μM/base pair), complex 1 (5.0 μM), and a phosphate buffer (0.10 M, pH 5.0, 6.0, 7.0, and 8.0) in a Pyrex vial was preincubated at 37° C. The reaction mixture was then irradiated with 350 nm UV light (32-W) for 2.0 h at room temperature. After adding a gel-loading buffer (0.25% bomophenol blue, 0.25% xylene cyanol, and 30% glycerol), the reaction mixture was loaded on a 1% agarose gel, followed by ethidium bromide staining. The gel was visualized by a 312-nm UV transilluminator and photographed by a FB-PDC-34 camera. Supercoiled circular DNA and cleaved DNA were clearly seen from the gel.

Assay [3] concerns 160-bp dsDNA fragment from the 501-660 fragment of pBR322 DNA. Kind of assay: Site-specific DNA cleavage of 5'-32P-labeled fragment, polyacrylamide gel against Maxam-Gilbert markers. The assay is classed as biochemical. The settings on record: complex 20-100 μM, 350-nm UV. The procedure: A 160-bp dsDNA fragment was prepared from the 501-660 fragment of pBR322 DNA. It was amplified by the polymerase chain reaction (Bailly & Waring (1995) J. Am. Chem. Soc. 117:7311; Bailly et al. (1993) J. Am. Chem. Soc. 115:3784; and Sayers & Waring (1993) Biochemistry 32:9094), and labeled at the 5′-terminus with γ-[^32P]-ATP and T4 polynucleotide kinase. A reaction mixture containing a 5′-terminus labeled ^32P-DNA solution, a phosphate buffer (0.10 M, pH 6.0), and complex 1 (20-100 μM) in a Pyrex vial was preincubated at 37° C. for 30 min. The reaction mixture was irradiated with 350-nm UV light under aerobic conditions for 2.0 h at room temperature. The bound metal complexes on DNA fragments were removed by using 0.30 N NaCN (pH=11) at 37° C. for 8.0 h (Schwartz et al. (1990) J. Am. Chem. Soc. 112:3673; and Zou et al. (1994) Biochemistry 33:5404). The reaction mixture was then quenched with either a gel-loading buffer or 95% ethanol. […] The samples and the Maxam-Gilbert markers were analyzed using 10% polyacrylamide/8.0 M urea gel. […] Quantitation of relative intensities of DNA fragments was performed using a Microtek scanner and NIH 1.60 image program.
The detected DNA fragments were compared with Maxam-Gilbert markers on an autoradiogram, and quantitated by a computer-assisted program.

For assay [4], the system named is double helical oligonucleotide d(ATAT)2. Kind of assay: DNA binding and cleaving mechanism with oligonucleotide, LC-mass. The note with it: 1:1, pH 6.0, in the dark 2.0 h. How it is done: A double helical oligonucleotide d(ATAT)2 was prepared and added to a phosphate buffer solution (pH=6.0) containing complex 1 (1:1). The solution was kept in the dark for 2.0 h. An intermediate was detected, at a yield of 57%, with a signal at 650.1 for (M+H^+) as analyzed by an electron spray ionization detector in LC-mass chromatogram. Then, the solution was irradiated with 350 nm-UV light for 2.0 h at room temperature. A product was detected with a signal at 456.1 for (M+H^+). […] Then an intramolecular cyclization took place to remove the DMSO and to form a covalent bond between the N-7 nitrogen atom and the platinum in complex 1, resulting in the oligonucleotide cleavage.

The test system of assay [5] is 2′-deoxyguanosine. Kind of assay: Binding and cleaving mechanism with 2'-deoxyguanosine, LC-mass. How it is done:
As a comparison, a reaction involving 2′-deoxyguanosine and complex 1 was carried out. […] As a result, cleavage at a guanine site required assistance from an external base (e.g., piperidine). In another experiment, an excess of complex 1 was added to a 2′-deoxyguanosine solution, followed by piperidine treatment. An intermediate was detected, at a yield of 42%, with a signal at 1063.9 for (M+H^+) as analyzed by an electron spray ionization detector in LC-mass chromatogram. The intermediate was able to give a cyclization product, at a yield of 80%, with a signal at 792.0 for (M+H^+) upon 350-nm UV light irradiation, but not in the dark. The scheme below depicts the just-described reaction: [drawing 6]

Where [6] appears, read: complex 1.0 μM, 350 nm UV 2.0 h.
Where [7] appears, read: complex 2.5 μM, 350 nm UV 2.0 h.
The mark [8] stands for this setting: complex 5.0 μM, 350 nm UV 2.0 h.

The record followed here is patent publication US6812247B2, “Organometallic complex” (Academia Sinica, priority 2001, dated 2004).

For `C[S+](C)(=O)[Pt]1([Cl])[O][n+]2ccccc2[S]1` (centres unmarked) [complex 1, PtCl(DMSO)[η^2—C5H4SN(O)]], the “% form I (supercoiled circular DNA)” value turned out to be 37% in assay [1] (setting [6]); 20% in assay [1] (setting [7]); 7.1% in assay [1] (setting [8]); 93% in assay [1] (complex 500 μM, in the dark). For the same molecule, the “% form II (cleaved DNA)” value in assay [1] (setting [6]) stood at 63%; in assay [1] (setting [7]) it was 80%; in assay [1] (setting [8]), 93%; in assay [1] (complex 500 μM, in the dark) it was 7.0%. The “(% form II)/(% form I)” value in assay [1] (setting [6]) is 1.7; in assay [1] (setting [7]), 4.0; in assay [1] (setting [8]), 13; in assay [1] (complex 500 μM, in the dark), 0.070. In addition, the DNA cleaving activity result in assay [1] (concentration as low as 1.0 μM) is on record as “very strong DNA cleaving activity”. Besides, the “cleavage of single-strand DNA” value in assay [1] (in the dark) is given as “did not occur”. The “DNA forms seen on gel” value in assay [2] (pH 5.0, 6.0, or 7.0, 350 nm UV 2.0 h) was “only cleaved DNA was observed”; in assay [2] (pH 8.0, 350 nm UV 2.0 h), “both supercoiled circular DNA and cleaved DNA were observed”. The “site of DNA cleavage” value in assay [3] (with hot piperidine treatment) is given as “cleaved DNA at purine residues”; in assay [3] (without piperidine treatment), “at adenine residues”. The “binding site on nucleic acid” value in assay [4] is given as “bound to the C-6 amino on an adenine”; in assay [5], “bound to the C-2 amino on a guanine”. The “yield of complex-bound intermediate” value is reported as 57% in assay [4] and 42% in assay [5] (excess of complex 1, piperidine treatment). The “yield of cyclization product from intermediate” value in assay [5] (350-nm UV light irradiation, not in the dark) is 80%.
